Reference: patent US5766624A, “Liposomal defensins” (The Liposme Company, Inc., priority 1995, dated 1998)
Where no end group is shown, it is not given here.

Experiments:
Aspergillus fumigatus = experiment: Treatment of Aspergillus fumigatus infections in mice; type: in vivo, Balb/c mice; conditions: 2 mg/kg, given six hours after 2×10^7 A. fumigatus spores; 15-day period
From the text: FIG. 14. Therapeutic Efficacy of Free and Liposomal Indolicidin Against Aspergillus Infections in Mice. […] The animals' survival was monitored over a period of fifteen days. Percent survival (vertical axis) is plotted against time in days (horizontal axis).
Male Balb/c mice were each injected with 2×10^7 Aspergillus fumigatus spores by injection in the tail vein. After six hours, the mice were randomly divided into five groups of 10 mice each. […] The animals' survival was monitored over a 15-day period.

[1] = Right angle light scattering of aqueous indolicidin; type: physicochemical; conditions: 10 mM HEPES, 150 mM NaCl, pH 7.5; light scattering 500 nm, 90 degrees
Experimental: FIG. 1. Right Angle Light Scattering of Aqueous Indolicidin. […] Samples were placed in fluorescence cuvettes and the scattering of light at 500 nm wavelengths (excitation wavelength) was measured in the fluorimeter at an angle of 90 degrees.
Samples were placed in fluorescence cuvettes and light scattering at 500 nm ([…] in the fluorimeter, at a 90 degree angle.

[2] = Leakage of CAT1 probe from DSPC/Chol liposomes (ESR); conditions: for % Probe in Supernatant: CAT1, 23 deg. C
Experimental: A solution of DSPC (60 mg) and cholesterol (20 mg) was dried by rotary evaporation; the dried lipids were then rehydrated with 2 ml of buffer (10 mM HEPES, 150 mM NaCl), containing 0.5 mM of the probe CAT1 (4-trimethylammmonium-2,2,6,6-tetramethylpiperidine-1-oxyl-iodide) so as to form a suspension of multilamellar liposomes containing the probe. A suspension of these vesicles was then heated for 10 min. at 65 deg. C. The sample was washed four times with HEPES buffer and resuspended in buffer to a final volume of 2 ml. […] Various amounts of this solution (see Table 1, below) were combined with an aliquot (100 μl) of the liposome preparation, with buffer then being added to bring the final volume up to 0.2 ml. Samples were microfuged, and the supernatants transferred to ESR tubes. Spectra were taken at room temperature (23 deg. C.) to determine the concentration of the probe in the supernatant samples (see Perkins et al., Biochim. Biophys. Acta. 943:103 (1988)).
The data (see Table 1, below) indicates the percent of the probe found in the supernatant, and thereby, the percent leakage from the DSPC/Chol liposomes.

[3] = Leakage of CAT1 probe from DSPC/Chol/DDAB liposomes (ESR)
Experimental: A solution of DSPC (51.6 mg), cholesterol (20.2 mg) and dimethyldioctadecyl ammonium bromide (DDAB; 8.23 mg) was dried in a round-bottom flask. The lipids were rehydrated with buffer (10 mM HEPES, 150 mM NaCl) containing 0.5 mM of the probe CAT1 so as to form a suspension of multilamellar liposomes. The suspension was heated at 65 deg. C. for 10 min and then washed twice in 10 ml of the HEPES buffer, with the final pellet comprising DSPC/Chol/DDAB multilamellar liposomes containing CAT1, being resuspended in HEPES buffer to a final volume of 2 ml. A standard phosphate assay (see Chen et al., Anal. Chem. 28:1956 (1956)) was performed to determine the amount of lipid remaining (34.12 mg).
Various amounts of this solution (see Table 2, below) were combined with an aliquot (100 μl) of the liposome suspension, the final volume of the samples being brought up to 0.2 ml with HEPES buffer. These samples were centrifuged, and aliquots of the supernatants were taken for ESR spectra determination (23 deg. C.) to measure probe leakage.

In vivo acute toxicity = experiment: In vivo acute toxicity; design: species or system Balb/c mice; conditions: for Number of Animals Dead: tail vein
Experimental: Mice were also injected with saline and with empty liposomes.

protein kinase C = conditions: Charp et al., Biochem. Pharmacol. 37(5):951 (1988); cited from earlier work

Molecule: CC[C@H](C)[C@H](N)C(=O)N[C@@H](CC(C)C)C(=O)N1CCC[C@H]1C(=O)N[C@@H](Cc1c[nH]c2ccccc12)C(=O)N[C@@H](CCCCN)C(=O)N[C@@H](Cc1c[nH]c2ccccc12)C(=O)N1CCC[C@H]1C(=O)N[C@@H](Cc1c[nH]c2ccccc12)C(=O)N[C@@H](Cc1c[nH]c2ccccc12)C(=O)N1CCC[C@H]1C(=O)N[C@@H](Cc1c[nH]c2ccccc12)C(=O)N[C@@H](CCCNC(=N)N)C(=O)N[C@@H](CCCNC(=N)N)C(N)=O [indolicidin]
- survival times of infected mice (Aspergillus fumigatus): slight increase in survival times
- concentration at which indolicidin self-associates in solution [1]: ≥ 30000 ng/mL
- % Leakage of Probe ([2]; 0.42 mole % indolicidin): 1.75%
- % Probe in Supernatant ([2]; 0.42 mole % indolicidin (3.20 μl stock)): 6.14%
- % Leakage of Probe ([2]; 0.82 mole % indolicidin): 1.75%
- % Probe in Supernatant ([2]; 0.82 mole % indolicidin (6.30 μl stock)): 6.14%
- % Leakage of Probe ([2]; 1.61 mole % indolicidin): 0.87%
- % Probe in Supernatant ([2]; 1.61 mole % indolicidin (12.50 μl stock)): 5.26%
- % Leakage of Probe ([2]; 3.16 mole % indolicidin): 1.75%
- % Probe in Supernatant ([2]; 3.16 mole % indolicidin (25.00 μl stock)): 6.14%
- % Leakage of Probe ([2]; 6.16 mole % indolicidin): 2.63%
- % Probe in Supernatant ([2]; 6.16 mole % indolicidin (50.00 μl stock)): 7.02%
- % Leakage of Probe ([2]; 8.93 mole % indolicidin): 1.75%
- % Probe in Supernatant ([2]; 8.93 mole % indolicidin (75.00 μl stock)): 6.14%
- effect of increasing indolicidin concentration on probe leakage ([2]; DSPC/Chol liposomes, 0.42-8.93 mole % indolicidin): did not significantly increase probe leakage
- % Probe in Supernatant ([3]; 0.48 mole % indolicidin (3.20 μl stock), CAT1, 23 deg. C): 8.00%
- % Probe in Supernatant ([3]; 0.93 mole % indolicidin (6.30 μl stock)): 8.00%
- % Probe in Supernatant ([3]; 1.84 mole % indolicidin (12.50 μl stock)): 9.78%
- % Probe in Supernatant ([3]; 3.61 mole % indolicidin (25.00 μl stock)): 10.67%
- % Probe in Supernatant ([3]; 6.99 mole % indolicidin (50.00 μl stock)): 9.78%
- % Probe in Supernatant ([3]; 10.09 mole % indolicidin (75.00 μl stock), corrected for any liposomes in the supernatant): 0%
- % Probe in Supernatant ([3]; 13.04 mole % indolicidin (100.00 μl stock), corrected for any liposomes in the supernatant): 0%
- Number of Animals Dead (In vivo acute toxicity; free indolicidin dose 0.4 mg/kg): 0/5
- Number of Animals Dead (In vivo acute toxicity; free indolicidin dose 1.2 mg/kg): 1/5
- Number of Animals Dead (In vivo acute toxicity; free indolicidin dose 4.0 mg/kg): 3/5
- Number of Animals Dead (In vivo acute toxicity; free indolicidin dose 12.0 mg/kg): 0/5
- LD50 (In vivo acute toxicity; male Balb/c mice, tail vein injection): 3 mg/kg

Molecule: HNP-1: human neutrophil protein 1, a prototypical mammalian defensin
- protein kinase C activity (protein kinase C): inhibited

Molecule: HNP-2: human neutrophil protein 2, a prototypical mammalian defensin (CYCRIPACIAGERRYGTCIYQGRLWAFCC; ends and bridges not checked; cysteine pairing not given here; UniProt P59665 66-94, looked up)
- protein kinase C activity (protein kinase C): inhibited

Molecule: HNP-3: human neutrophil protein 3, a prototypical mammalian defensin
- protein kinase C activity (protein kinase C): inhibited
